Source: patent US8318504B2, “MRP2 efflux pathway prognostic method” (priority 2009, dated 2012)

Legend:
NTCP = molecular target: T1, NTCP (Homo sapiens, UniProt Q14973); assay: Uptake of TC and CLF into CHO cells stably expressing NTCP; type: cell-based; details: 1 μmol/L CLF, 1 and 5 minutes, fluorescence analysis and quantitative determination
T1 construct: the coding region ligated into pcDNA5/FRT; expressed in transfected cells
T1 sequence (Q14973 1-349): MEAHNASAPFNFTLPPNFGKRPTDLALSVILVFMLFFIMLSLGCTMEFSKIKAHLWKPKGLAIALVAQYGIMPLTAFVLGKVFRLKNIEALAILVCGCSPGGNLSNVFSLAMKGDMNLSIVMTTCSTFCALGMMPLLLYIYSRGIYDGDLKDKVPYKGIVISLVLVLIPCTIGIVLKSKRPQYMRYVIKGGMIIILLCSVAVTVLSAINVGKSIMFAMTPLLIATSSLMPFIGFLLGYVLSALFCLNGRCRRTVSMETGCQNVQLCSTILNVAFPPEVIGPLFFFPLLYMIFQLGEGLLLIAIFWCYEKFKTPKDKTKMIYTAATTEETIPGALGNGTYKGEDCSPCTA
Procedure: cDNA for human NTCP [Hagenbuch et al., J Clin Invest 1994 March; 93(3): 1326-1331] was cut with EcoRV and HindI and the coding region ligated into pcDNA5/FRT (Invitrogen, Life-Technologies, Carlsbad, Calif.). CHO FlpIn cells (Invitrogen, Life-Technologies) were transfected with the resulting construct using Lipofectamine® 2000 (Invitrogen, Life-Technologies). Stably transfected cells were selected with 550 μg Hygromycin-B in HAM-F12 medium (Gibco, Invitrogen, Life-Technologies). Transfected cells were cloned with the limiting dilution method. […] To further characterize the cloned cells, immunofluorescence localization of NTCP using a polyclonal antibody against NTCP [Kullak-Ublick G et al., Gastroenterology 1997 October; 113(4):1295-1305] was performed as described by Huber R D et al. [Am J Physiol Cell Physiol 2007 February; 292(2):[…]-[…]]. CHO cells expressing OATP1B1, OATP1B3 and OATP2B1 were described previously [Treiber et al., DMD 35:1400-1407, 2007]. For all transport experiments, cells grown on 3 cm culture dishes were cultured for 24 hours in media supplemented with 5 mmol/L sodium-butyrate to increase expression levels of transfected transporters [Palermo D P et al., J Biotechnol 1991 June; 19(1):35-47]. • Transport experiments with uptake of radioactively labeled substrates: These experiments were performed as described by Huber R D et al. […] Uptake was performed in the same buffers as for the radioactive substrates above. For visualization of CLF uptake, cells were immediately inspected with a Leica-DM-IRBE-inverted-microcope (Leica-Microsystems, Wetzlar, Germany) equipped with a Hamamatsu-ORKA-ER-camera (Hamamatsu-Photonoics, Japan). To determine uptake of CLF, cells were solubilized by the addition of 2 ml 1% (w/v) Triton-X-100. After complete solubilization, 1.5 ml was used to measure fluorescence in a Perkin-Elmer LS-5 luminescence-spectrometer set at λexe 486 nm (slit 10 nm) and λem 520 nm (slit 5 nm). Protein was determined with the bicinchoninic acid method using a kit from Interchim (Montfuçon, France). […]

OATP1B1 = molecular target: T2, OATP1B1 (Homo sapiens, UniProt Q9Y6L6); assay: Uptake of CLF into CHO cells expressing OATP1B1; type: cell-based; details: 1 μmol/L CLF, 1 or 5 minutes
T2 construct: expressed in transfected cells; host or cells: CHO cells (stably transfected; Treiber et al. 2007)
T2 sequence (Q9Y6L6 1-691): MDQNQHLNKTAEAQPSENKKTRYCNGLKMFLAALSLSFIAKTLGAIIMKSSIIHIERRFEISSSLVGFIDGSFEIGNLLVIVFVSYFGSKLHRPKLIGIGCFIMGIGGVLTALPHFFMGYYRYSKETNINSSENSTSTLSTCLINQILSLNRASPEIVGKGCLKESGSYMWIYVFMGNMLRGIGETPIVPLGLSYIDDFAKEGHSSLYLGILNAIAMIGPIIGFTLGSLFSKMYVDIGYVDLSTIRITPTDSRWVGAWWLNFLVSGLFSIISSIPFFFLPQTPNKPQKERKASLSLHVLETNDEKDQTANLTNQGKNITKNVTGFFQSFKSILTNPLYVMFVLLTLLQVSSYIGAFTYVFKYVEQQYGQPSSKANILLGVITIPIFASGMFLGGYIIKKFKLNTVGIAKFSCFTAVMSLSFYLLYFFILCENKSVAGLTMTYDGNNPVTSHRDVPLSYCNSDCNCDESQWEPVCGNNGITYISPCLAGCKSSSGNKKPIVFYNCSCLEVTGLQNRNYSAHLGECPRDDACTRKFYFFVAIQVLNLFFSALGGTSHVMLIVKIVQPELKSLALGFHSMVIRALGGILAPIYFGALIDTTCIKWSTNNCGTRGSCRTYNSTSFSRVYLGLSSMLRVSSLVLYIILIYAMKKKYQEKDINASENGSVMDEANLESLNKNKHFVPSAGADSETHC
Procedure: cDNA for human NTCP [Hagenbuch et al., J Clin Invest 1994 March; 93(3): 1326-1331] was cut with EcoRV and HindI and the coding region ligated into pcDNA5/FRT (Invitrogen, Life-Technologies, Carlsbad, Calif.). CHO FlpIn cells (Invitrogen, Life-Technologies) were transfected with the resulting construct using Lipofectamine® 2000 (Invitrogen, Life-Technologies). Stably transfected cells were selected with 550 μg Hygromycin-B in HAM-F12 medium (Gibco, Invitrogen, Life-Technologies). Transfected cells were cloned with the limiting dilution method. […] To further characterize the cloned cells, immunofluorescence localization of NTCP using a polyclonal antibody against NTCP [Kullak-Ublick G et al., Gastroenterology 1997 October; 113(4):1295-1305] was performed as described by Huber R D et al. [Am J Physiol Cell Physiol 2007 February; 292(2):[…]-[…]]. CHO cells expressing OATP1B1, OATP1B3 and OATP2B1 were described previously [Treiber et al., DMD 35:1400-1407, 2007]. […] After complete solubilization, 1.5 ml was used to measure fluorescence in a Perkin-Elmer LS-5 luminescence-spectrometer set at λexe 486 nm (slit 10 nm) and λem 520 nm (slit 5 nm). Protein was determined with the bicinchoninic acid method using a kit from Interchim (Montfuçon, France). […]

CC(CCC(=O)NC(CCCCNC(=S)Nc1ccc(-c2c3ccc(=O)cc-3oc3cc(O)ccc23)c(C(=O)O)c1)C(=O)O)C1CCC2C3C(O)CC4CC(O)CCC4(C)C3CC(O)C12C (centres unmarked) [CLF, cholyl lysyl fluorescein]
sodium-dependent uptake of CLF mediated by NTCP (NTCP): no sodium-dependent uptake
uptake of CLF into OATP1B1 cells (OATP1B1): very weak but consistent
